Assay results from patent US6197535A, “Methods for purifying and assaying a conus γ-carboxylase” (University of Utah Research Foundation, priority 1999, dated 2001).
No end group written: not given here.

Experiments:
Format in all cases: biochemical
[1] = system: Conus γ-glutamyl carboxylase (Conus radiatus venom duct microsomes); settings: for IC50: read-out: apparent IC50; for Km: read-out: apparent Km
[2] = target: T1, bovine microsomal γ-glutamyl carboxylase (Bos taurus, UniProt Q07175)
T1 construct: For experiments with bovine microsomes, 380 μg of microsomal protein was present in each reaction; from tissue; host or cells: bovine microsomes, gift of Dr. D. W. Stafford
T1 sequence (Q07175 1-758): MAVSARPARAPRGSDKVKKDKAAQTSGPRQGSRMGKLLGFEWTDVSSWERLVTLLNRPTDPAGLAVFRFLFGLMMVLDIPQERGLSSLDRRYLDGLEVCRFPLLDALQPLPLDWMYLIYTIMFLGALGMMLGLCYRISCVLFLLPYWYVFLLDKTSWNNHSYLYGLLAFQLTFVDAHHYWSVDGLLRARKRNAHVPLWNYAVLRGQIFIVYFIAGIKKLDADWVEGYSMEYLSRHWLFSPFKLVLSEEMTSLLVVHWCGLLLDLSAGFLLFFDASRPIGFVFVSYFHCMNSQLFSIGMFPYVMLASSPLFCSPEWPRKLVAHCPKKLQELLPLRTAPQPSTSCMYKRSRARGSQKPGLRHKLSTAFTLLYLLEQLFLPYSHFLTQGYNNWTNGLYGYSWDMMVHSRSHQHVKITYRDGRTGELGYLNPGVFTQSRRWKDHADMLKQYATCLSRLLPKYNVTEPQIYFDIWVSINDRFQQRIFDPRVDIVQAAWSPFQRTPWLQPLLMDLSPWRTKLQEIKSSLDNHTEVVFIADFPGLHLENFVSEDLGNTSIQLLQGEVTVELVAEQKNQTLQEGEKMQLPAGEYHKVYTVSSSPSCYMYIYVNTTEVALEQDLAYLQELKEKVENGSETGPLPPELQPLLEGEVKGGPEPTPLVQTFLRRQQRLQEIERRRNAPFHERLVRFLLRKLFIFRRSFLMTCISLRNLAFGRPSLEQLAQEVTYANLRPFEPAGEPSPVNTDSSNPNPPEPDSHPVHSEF

Conus γ-carboxylase = system: Conus γ-carboxylase

ALKAEPVLLQKSAARSTDDN [Pro (-40 to -21)]
effect on the carboxylation of FLEEL or E.ConG [1]: no effect
inhibition of carboxylation of -10.Pro-E.Con-G [1]: did not inhibit
IC50 [1]: > 1000 µM

FLEEL [reference compound]
pmol 14CO2 Incorporated [1]: 818 pmol
Km [1]: 301 ± 6 µM
pmol 14CO2 Incorporated [2]: 249 pmol

GKDRLTQMKRILKQRGNKARFLEEL-NH2 [-20.Pro-FLEEL]
Km [1]: 4 µM

GKDRLTQMKRILKQRGNKARGEEELQENQELIREKSN-NH2 [-20.Pro-E.Con-G]
pmol 14CO2 Incorporated [1]: 2741 pmol
substrate quality for γ-carboxylation, Conus enzyme [1]: excellent substrate
Km [1]: 28 ± 3 µM
pmol 14CO2 Incorporated [2]: 3 pmol
substrate quality for γ-carboxylation, mammalian enzyme [2]: extremely poor
Glu residues carboxylated (Gla analysis of reaction product) (Conus γ-carboxylase): Glu2 was not carboxylated. The rest of the Glu residues were carboxylated, although Glu14 was not efficiently carboxylated

GTGTLDDGGALTERRSADAT [Pro (-60 to -41)]
effect on the carboxylation of FLEEL or E.ConG [1]: no effect
inhibition of carboxylation of -10.Pro-E.Con-G [1]: did not inhibit
IC50 [1]: > 1000 µM

ILKQRGNKARGEEELQENQELIREKSN-NH2 [-10.Pro-E.Con-G]
Km [1]: 1840 ± 109 µM

KSAARSTDDNGKDRLTQMKRILKQRGNKAR [Pro (-30 to -1)]
IC50 [1]: 200 µM
